Counter-ions that a name gives are not always drawn. Like-named read-outs stand apart in the source and are kept apart here.
Tests used:
satiated rats = experiment: NPY-induced food intake in satiated rats; assay type: in vivo, rat; settings: 300 pmole i.c.v., p<0.05 Student-Newman-Keuls
Experimental: For these determinations food intake may be measured in normal satiated rats after intracerebroventricular application (i.c.v.) of NPY in the presence or absence of the test compound. Male Sprague Dawley rats (Ciba-Geigy AG, Sisseln, Switzerland) weighing between 180 g and 220 g are used for all experiments. The rats are individually housed in stainless steel cages and maintained on an 11:13 h light-dark cycle (lights off at 18:00 h) at a controlled temperature of 21-23° C. at all times. Water and food (NAFAG lab chow pellets NAFAG, Gossau, Switzerland) are available ad libidum.
Rats under pentobarbital anesthesia are stereotaxically implanted with a stainless steel guide cannula targeted at the right lateral ventricle. Stereotaxic coordinates, with the incisor bar set −2.0 mm below interaural line, are: −0.8 mm anterior and +1.3 mm lateral to bregma. The guide cannula is placed on the dura. […]
Food intake may be measured by placing preweighed pellets into the cages at the time of NPY injection. […] The food intake of animals treated with test compound may be calculated as a percentage of the food intake of control animals i.e., animals treated with vehicle. Alternatively, food intake for each group of animals subjected to a particular experimental condition may be expressed as the mean±S.E.M. Statistical analysis is performed by analysis of variance using the Student-Newman-Keuls test.

human Y4 receptor [1] = biological target: T1, human Y4 receptor (Homo sapiens, UniProt P50391); experiment: ^125I-PYY binding to cloned human Y4 receptor (COS-7 membranes); settings: cloned human Y-type receptors; expression system not given
rat Y4 receptor = rat Y4 receptor (Rattus norvegicus, UniProt Q63447); experiment: ^125I-PYY binding to cloned rat Y4 receptor (COS-7 membranes); settings: cloned rat Y-type receptors; expression system not given
canine Y5 receptor = experiment: Porcine ^125I-PYY binding to canine Y5 receptor (COS-7 membranes); settings: COS-7 transient, Table 20 prints no unit, nM
human Y2 receptor [2] = biological target: T2, human Y2 receptor (Homo sapiens, UniProt P49146); experiment: ^125I-PYY binding to cloned human Y2 receptor (COS-7 membranes); settings: cloned human Y-type receptors; expression system not given
T2 sequence (P49146 1-381): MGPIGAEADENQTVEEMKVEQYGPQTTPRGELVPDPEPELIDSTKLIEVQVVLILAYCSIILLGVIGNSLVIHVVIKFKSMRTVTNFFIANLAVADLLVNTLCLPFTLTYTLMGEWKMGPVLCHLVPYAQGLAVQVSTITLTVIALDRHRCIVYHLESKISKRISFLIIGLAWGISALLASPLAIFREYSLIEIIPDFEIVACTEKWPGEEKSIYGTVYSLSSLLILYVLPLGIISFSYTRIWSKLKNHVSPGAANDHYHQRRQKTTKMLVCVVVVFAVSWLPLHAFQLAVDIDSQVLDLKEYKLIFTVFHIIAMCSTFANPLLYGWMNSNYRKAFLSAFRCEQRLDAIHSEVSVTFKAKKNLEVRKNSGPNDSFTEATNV

rat Y2 receptor [3] = biological target: T3, rat Y2 receptor (Rattus norvegicus, UniProt Q9ERC0); experiment: Antagonism of NPY- or PP-induced activation of rat Y2 receptors; assay type: cell-based; set-up: expressed in transfected cells; settings: rat Y2, concentrations up to 1 μM
rat Y2 receptor [4] = biological target: T3, rat Y2 receptor; experiment: ^125I-PYY binding to cloned rat Y2 receptor (COS-7 membranes); settings: cloned rat Y-type receptors; expression system not given
human 5HT1E receptor = human 5HT1E receptor (Homo sapiens, UniProt P28566); experiment: Cross-reactivity binding, human 5HT1E receptor; settings: for Receptor (pKi) 5HT1E: cloned human receptor
human 5HT1F receptor = biological target: T4, human 5HT1F receptor (Homo sapiens, UniProt P30939); experiment: Cross-reactivity binding, human 5HT1F receptor; settings: for Receptor (pKi) 5HT1F: cloned human receptor
T4 sequence (P30939 1-366): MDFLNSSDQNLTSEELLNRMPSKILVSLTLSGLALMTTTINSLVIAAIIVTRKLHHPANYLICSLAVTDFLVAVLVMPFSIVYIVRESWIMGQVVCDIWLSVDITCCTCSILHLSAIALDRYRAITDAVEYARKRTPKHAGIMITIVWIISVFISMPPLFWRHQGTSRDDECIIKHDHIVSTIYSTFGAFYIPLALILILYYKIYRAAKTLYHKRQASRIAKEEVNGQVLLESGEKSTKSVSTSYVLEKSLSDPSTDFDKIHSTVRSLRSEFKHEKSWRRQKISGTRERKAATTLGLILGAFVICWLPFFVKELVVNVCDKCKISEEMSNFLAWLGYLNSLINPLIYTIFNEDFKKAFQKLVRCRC

human 5HT1Dα receptor = human 5HT1Dα receptor (Homo sapiens, UniProt P28221); experiment: Cross-reactivity binding, human 5HT1Dα receptor; settings: for Receptor (pKi) 5HT1Dα: cloned human receptor
5HT1D2 = 5HT1D2 (Homo sapiens, UniProt P28222); experiment: Cross-reactivity binding, human 5HT1D2 receptor; settings: for Receptor (pKi) 5HT1D2: cloned human receptor
[5] = biological target: human α2C adrenergic receptor (Homo sapiens, UniProt P18825); experiment: Cross-reactivity binding, cloned human α2c receptor
human Y2 receptor [6] = biological target: T2, human Y2 receptor; experiment: ^125I-PYY binding of compounds to human Y2 receptor, stably transfected cells
Experimental: (§1) To prepare membranes from baculovirus infected cells, 2×10^7 Sf21 cells were grown in 150 mm tissue culture dishes and infected with a high-titer stock of hY5BB3.

5HT1a = 5HT1a (Homo sapiens, UniProt P08908); experiment: Cross-reactivity binding, human 5HT1a receptor
human 5HT2 receptor = human 5HT2 receptor (Homo sapiens, UniProt P28223); experiment: Cross-reactivity binding, human 5HT2 receptor
[7] = biological target: human dopamine D3 receptor (Homo sapiens, UniProt P35462); experiment: Cross-reactivity binding, human dopamine D3 receptor
human Y1 receptor = human Y1 receptor (Homo sapiens, UniProt P25929); experiment: ^125I-PYY binding of compounds to human Y1 receptor, stably transfected cells
Experimental: as §1

human Y4 receptor [8] = biological target: T1, human Y4 receptor; experiment: ^125I-PYY binding of compounds to human Y4 receptor, stably transfected cells
Experimental: as §1

[9] = biological target: human α1b adrenergic receptor (Homo sapiens, UniProt P35368); experiment: Cross-reactivity binding, cloned human α1b receptor
[10] = biological target: human α1d adrenergic receptor (Homo sapiens, UniProt P25100); experiment: Cross-reactivity binding, cloned human α1d receptor
[11] = biological target: human α1a adrenergic receptor (Homo sapiens, UniProt P35348); experiment: Cross-reactivity binding, cloned human α1a receptor
[12] = biological target: human α2B adrenergic receptor (Homo sapiens, UniProt P18089); experiment: Cross-reactivity binding, cloned human α2b receptor
human 5-HT7 receptor = human 5-HT7 receptor (Homo sapiens, UniProt P34969); experiment: Cross-reactivity binding, human 5-HT7 receptor
[13] = biological target: human α2A adrenergic receptor (Homo sapiens, UniProt P08913); experiment: Cross-reactivity binding, cloned human α2a receptor

Chain of human 5HT1Dα receptor (P28221 whole entry): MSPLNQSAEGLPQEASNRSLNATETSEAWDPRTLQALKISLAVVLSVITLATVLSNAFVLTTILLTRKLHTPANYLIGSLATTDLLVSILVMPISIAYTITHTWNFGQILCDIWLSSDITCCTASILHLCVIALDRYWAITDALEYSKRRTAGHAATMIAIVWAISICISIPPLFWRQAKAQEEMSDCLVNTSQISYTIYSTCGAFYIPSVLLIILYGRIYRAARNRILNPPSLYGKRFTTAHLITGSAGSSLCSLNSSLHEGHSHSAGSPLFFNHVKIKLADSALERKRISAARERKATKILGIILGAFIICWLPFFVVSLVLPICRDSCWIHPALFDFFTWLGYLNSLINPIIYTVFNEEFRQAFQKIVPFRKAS
Chain of 5HT1D2 (P28222 whole entry): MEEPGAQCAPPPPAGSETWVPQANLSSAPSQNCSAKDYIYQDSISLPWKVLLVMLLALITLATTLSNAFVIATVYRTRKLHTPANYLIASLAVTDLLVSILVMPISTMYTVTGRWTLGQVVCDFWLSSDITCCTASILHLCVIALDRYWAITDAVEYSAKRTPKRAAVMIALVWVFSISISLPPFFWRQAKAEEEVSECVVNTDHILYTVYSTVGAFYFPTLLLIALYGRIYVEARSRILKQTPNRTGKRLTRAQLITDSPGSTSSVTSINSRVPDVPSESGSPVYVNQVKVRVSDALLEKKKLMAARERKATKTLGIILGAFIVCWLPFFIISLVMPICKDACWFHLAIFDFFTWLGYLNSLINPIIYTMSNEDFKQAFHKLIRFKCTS
T1 sequence (P50391 whole entry): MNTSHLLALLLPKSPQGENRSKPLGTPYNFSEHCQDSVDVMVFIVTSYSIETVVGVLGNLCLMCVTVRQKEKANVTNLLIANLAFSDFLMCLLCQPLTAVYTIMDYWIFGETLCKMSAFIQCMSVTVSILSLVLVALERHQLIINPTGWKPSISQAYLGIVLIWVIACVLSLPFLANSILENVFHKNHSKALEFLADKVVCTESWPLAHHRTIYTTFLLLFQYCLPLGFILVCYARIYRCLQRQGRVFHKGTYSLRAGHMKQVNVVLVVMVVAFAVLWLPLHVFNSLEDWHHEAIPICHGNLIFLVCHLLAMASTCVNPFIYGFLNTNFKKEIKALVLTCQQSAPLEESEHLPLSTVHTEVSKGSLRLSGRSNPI
Chain of human 5HT1E receptor (P28566 whole entry): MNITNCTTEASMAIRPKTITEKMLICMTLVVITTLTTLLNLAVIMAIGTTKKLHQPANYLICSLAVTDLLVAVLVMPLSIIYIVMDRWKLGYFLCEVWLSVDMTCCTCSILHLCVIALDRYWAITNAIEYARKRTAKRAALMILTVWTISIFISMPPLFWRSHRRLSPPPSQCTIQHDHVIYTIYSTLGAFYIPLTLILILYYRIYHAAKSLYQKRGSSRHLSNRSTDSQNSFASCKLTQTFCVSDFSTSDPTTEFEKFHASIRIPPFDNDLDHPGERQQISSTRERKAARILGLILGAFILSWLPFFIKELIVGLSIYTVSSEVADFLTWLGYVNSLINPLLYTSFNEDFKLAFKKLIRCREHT
Chain of human α2C adrenergic receptor (P18825 whole entry): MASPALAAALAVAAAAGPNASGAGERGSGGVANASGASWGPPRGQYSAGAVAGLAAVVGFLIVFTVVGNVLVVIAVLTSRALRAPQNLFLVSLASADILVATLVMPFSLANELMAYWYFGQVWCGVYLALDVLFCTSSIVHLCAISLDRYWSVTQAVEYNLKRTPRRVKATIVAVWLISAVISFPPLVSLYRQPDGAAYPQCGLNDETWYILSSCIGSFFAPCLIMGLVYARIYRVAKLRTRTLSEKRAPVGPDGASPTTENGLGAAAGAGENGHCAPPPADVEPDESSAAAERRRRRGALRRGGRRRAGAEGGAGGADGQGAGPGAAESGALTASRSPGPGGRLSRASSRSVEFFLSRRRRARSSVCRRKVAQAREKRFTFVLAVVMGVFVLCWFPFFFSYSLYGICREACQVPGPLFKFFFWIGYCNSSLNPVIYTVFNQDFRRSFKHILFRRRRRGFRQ
Chain of human 5HT2 receptor (P28223 whole entry): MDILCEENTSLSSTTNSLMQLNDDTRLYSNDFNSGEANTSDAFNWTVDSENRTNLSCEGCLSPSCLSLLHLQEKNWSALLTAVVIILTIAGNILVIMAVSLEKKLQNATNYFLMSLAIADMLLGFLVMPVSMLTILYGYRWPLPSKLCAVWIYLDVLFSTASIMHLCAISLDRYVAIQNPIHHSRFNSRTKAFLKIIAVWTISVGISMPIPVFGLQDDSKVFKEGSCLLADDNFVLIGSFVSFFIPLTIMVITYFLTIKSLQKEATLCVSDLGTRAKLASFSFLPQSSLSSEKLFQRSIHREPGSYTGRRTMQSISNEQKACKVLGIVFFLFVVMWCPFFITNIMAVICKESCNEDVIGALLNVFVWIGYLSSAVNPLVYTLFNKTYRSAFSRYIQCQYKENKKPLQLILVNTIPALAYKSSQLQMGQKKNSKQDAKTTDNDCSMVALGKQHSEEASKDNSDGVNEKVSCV
Chain of human dopamine D3 receptor (P35462 whole entry): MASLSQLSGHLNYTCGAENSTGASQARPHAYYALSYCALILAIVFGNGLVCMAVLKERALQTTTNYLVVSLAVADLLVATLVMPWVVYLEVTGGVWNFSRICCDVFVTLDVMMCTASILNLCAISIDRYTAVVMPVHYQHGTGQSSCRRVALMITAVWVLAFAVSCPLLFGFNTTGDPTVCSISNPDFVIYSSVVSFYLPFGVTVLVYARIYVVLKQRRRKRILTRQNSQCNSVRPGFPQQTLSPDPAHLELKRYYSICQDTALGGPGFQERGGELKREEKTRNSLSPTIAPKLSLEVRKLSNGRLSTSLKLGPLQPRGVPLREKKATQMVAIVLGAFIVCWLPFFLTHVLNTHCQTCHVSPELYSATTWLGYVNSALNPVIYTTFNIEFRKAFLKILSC
Chain of human Y1 receptor (P25929 whole entry): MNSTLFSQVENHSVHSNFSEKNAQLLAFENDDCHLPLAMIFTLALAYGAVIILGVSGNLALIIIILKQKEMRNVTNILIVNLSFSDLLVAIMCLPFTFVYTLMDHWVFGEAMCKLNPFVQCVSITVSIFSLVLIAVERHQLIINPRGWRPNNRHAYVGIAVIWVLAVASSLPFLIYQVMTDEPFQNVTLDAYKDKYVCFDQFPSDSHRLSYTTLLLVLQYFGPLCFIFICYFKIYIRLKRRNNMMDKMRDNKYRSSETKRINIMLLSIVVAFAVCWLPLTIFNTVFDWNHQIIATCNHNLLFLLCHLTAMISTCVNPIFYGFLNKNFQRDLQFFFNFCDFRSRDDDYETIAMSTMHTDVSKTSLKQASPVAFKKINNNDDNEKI
T3 sequence (Q9ERC0 1-381): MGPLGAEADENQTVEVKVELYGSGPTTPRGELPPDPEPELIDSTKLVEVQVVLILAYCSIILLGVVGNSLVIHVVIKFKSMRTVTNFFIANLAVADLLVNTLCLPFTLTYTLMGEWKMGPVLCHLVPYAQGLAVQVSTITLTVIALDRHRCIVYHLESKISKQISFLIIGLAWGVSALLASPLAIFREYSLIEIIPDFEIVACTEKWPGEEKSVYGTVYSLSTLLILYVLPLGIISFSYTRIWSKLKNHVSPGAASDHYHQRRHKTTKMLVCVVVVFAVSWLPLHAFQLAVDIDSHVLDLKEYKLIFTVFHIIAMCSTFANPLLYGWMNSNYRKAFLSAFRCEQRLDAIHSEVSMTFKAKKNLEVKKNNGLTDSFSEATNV
Chain of 5HT1a (P08908 whole entry): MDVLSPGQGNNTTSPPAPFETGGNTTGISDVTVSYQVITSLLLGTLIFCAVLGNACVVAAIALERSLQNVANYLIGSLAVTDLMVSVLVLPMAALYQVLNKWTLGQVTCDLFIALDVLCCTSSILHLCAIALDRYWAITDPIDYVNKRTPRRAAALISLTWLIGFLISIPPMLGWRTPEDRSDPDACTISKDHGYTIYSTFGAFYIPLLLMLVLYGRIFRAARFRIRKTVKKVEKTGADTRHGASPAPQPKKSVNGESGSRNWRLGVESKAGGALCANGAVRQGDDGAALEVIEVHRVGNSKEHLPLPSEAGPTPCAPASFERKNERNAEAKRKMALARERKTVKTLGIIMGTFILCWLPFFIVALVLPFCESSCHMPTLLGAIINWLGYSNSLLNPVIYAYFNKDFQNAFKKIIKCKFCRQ
Chain of human α1a adrenergic receptor (P35348 whole entry): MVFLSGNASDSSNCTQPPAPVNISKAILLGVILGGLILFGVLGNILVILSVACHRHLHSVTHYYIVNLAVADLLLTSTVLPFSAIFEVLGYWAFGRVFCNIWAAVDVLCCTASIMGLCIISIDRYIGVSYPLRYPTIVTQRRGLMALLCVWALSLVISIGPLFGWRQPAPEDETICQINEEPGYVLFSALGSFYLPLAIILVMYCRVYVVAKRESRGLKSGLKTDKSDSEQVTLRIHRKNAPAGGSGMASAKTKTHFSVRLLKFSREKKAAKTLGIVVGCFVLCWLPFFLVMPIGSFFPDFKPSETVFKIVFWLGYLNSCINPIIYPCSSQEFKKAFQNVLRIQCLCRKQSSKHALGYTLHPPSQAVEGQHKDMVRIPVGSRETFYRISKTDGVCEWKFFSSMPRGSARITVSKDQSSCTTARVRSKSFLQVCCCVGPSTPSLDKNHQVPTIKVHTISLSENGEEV
Chain of human 5-HT7 receptor (P34969 1-445 isoform P34969-2): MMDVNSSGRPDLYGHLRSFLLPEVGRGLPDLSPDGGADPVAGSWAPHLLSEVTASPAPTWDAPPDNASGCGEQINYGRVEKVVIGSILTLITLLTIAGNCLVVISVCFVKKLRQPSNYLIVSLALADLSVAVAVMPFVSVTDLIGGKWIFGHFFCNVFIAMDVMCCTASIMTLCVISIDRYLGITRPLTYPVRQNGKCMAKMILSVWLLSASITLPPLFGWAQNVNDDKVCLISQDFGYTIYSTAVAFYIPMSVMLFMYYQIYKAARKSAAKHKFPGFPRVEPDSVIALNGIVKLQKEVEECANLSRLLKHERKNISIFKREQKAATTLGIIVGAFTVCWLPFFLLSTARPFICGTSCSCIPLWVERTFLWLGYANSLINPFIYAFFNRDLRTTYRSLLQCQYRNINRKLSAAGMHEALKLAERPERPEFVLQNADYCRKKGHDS

For “NPY: neuropeptide Y; porcine NPY, 300 pmole i.c.v., in the feeding studies”, the “effect on food intake vs vehicles” value (satiated rats) was “significantly induce food intake”.
`NC(N)=NCCC[C@@H](NC(=O)C(c1ccccc1)c1ccccc1)C(=O)NCc1ccc(O)cc1` [BIBP 3226] showed a Ki (human Y4 receptor [1]) of 8 µM, a Ki (rat Y4 receptor) of 0.42 µM and a Ki (canine Y5 receptor) of 17000 nM. For the same compound, the Ki (human Y2 receptor [2]) was 6.9 µM, the “antagonism of NPY- or PP-induced activation” value (rat Y2 receptor [3]) was “no evidence for antagonism” and the Ki (rat Y2 receptor [4]) was 66 µM.
With `Cl.Cl.c1ccc(Nc2nc(Nc3ccc(N4CCCCC4)cc3)nc3ccccc23)cc1` [Compound 6, 2-[4-(Piperidin-1-yl)-phenylamino]-4-phenylamino-quinazoline Dihydrochloride] the “Receptor (pKi) 5HT1E” value (human 5HT1E receptor) was 5.30, the “Receptor (pKi) 5HT1F” value (human 5HT1F receptor) was 5.30 and the “Receptor (pKi) 5HT1Dα” value (human 5HT1Dα receptor) was 5.30. For the same compound, the “Receptor (pKi) 5HT1D2” value (5HT1D2) was 5.30 and the Ki [5] was 0.437 µM.
For `Cl.O=S(=O)(NC[C@H]1CC[C@H](CNCC2CCc3ccccc3C2)CC1)c1cccc2ccccc12` (some centres unmarked) [Compound 19], the “Receptor (pKi) 5HT1E” value (human 5HT1E receptor) was 5.30, the “Receptor (pKi) 5HT1F” value (human 5HT1F receptor) was 5.30 and the “Receptor (pKi) 5HT1D2” value (5HT1D2) was 5.30.
For `CNS(=O)(=O)Cc1ccc(Nc2nc(Nc3ccccc3)c3cc(OC)ccc3n2)cc1.Cl` [Compound 10, N-Methyl-[4-(6-methoxy-4-phenylamino-quinazolin-2-ylamino)-phenyl]-methanesulfonamide Hydrochloride], the “Receptor (pKi) 5HT1E” value (human 5HT1E receptor) was 5.30, the “Receptor (pKi) 5HT1F” value (human 5HT1F receptor) was 5.30 and the Ki (human Y2 receptor [6]) was greater than 100000 nM. The “Receptor (pKi) 5HT1Dα” value (human 5HT1Dα receptor) was 5.30 and the “Receptor (pKi) 5HT1D2” value (5HT1D2) was 5.30.
`Cl.Nc1nc(NC[C@H]2CC[C@H](CNS(=O)(=O)c3cccc4ccccc34)CC2)nc2ccccc12` [Compound 5, trans-Naphthalene-1-sulfonic Acid {4-[(4-amino-quinazolin-2-ylamino)-methyl]-cyclohexylmethyl}-amide Hydrochloride] was tested, and the “Receptor (pKi) 5HT1E” value (human 5HT1E receptor) was 5.30, the Ki (5HT1a; cloned human receptor, read-out: Receptor (pKi) 5HT1a (converted)) was 0.468 µM and the Ki (human 5HT2 receptor; cloned human receptor, read-out: Receptor (pKi) 5HT2 (converted)) was 0.389 µM. For the same compound, the “Receptor (pKi) 5HT1F” value (human 5HT1F receptor) was 5.30 and the Ki ([7]; cloned human receptor, read-out: Receptor (pKi) D3 (converted)) was 0.0575 µM.
“2-(Naphthalen-1-yl)-3-phenylpropane-1,2-diamine [Compound 28]” showed a Ki (human Y1 receptor; read-out: Binding Affinity (Ki (nM) vs. ^125I-PYY) Human Receptor Y1, stably transfected 293 or LM(tk-) cells, compound 1 also COS-7 data) greater than 100000 nM, a Ki (human Y2 receptor [6]; read-out: Binding Affinity (Ki (nM) vs. ^125I-PYY) Human Receptor Y2, stably transfected 293 or LM(tk-) cells, compound 1 also COS-7 data) greater than 75000 nM and a Ki (human Y4 receptor [8]; read-out: Binding Affinity (Ki (nM) vs. ^125I-PYY) Human Receptor Y4, stably transfected cells) greater than 100000 nM.
`O=S(=O)(NC[C@H]1CC[C@H](CNC(CO)Cc2ccc(Cl)cc2)CC1)c1cccc2ccccc12` (stereo partly drawn) [Compound 25, Naphthalene-1-sulfonic Acid trans-(4-{[2-(4-Chlorophenyl)-1-hydroxymethyl-ethylamino]-methyl}cyclohexylmethyl)-amide] gave a Ki (human 5HT1E receptor) of 5.01 µM and a Ki (human 5HT1F receptor) of 5.01 µM.
`CNS(=O)(=O)Cc1ccc(Nc2nc(Nc3ccccc3)c3ccccc3n2)cc1.Cl` [Compound 11, N-Methyl-[4-(4-phenylamino-quinazolin-2-ylamino)-phenyl]-methanesulfonamide Hydrochloride] was tested, and the “Receptor (pKi) 5HT1E” value (human 5HT1E receptor) was 5.30, the “Receptor (pKi) 5HT1F” value (human 5HT1F receptor) was 5.30 and the Ki (human Y2 receptor [6]) was greater than 100000 nM. For the same compound, the “Receptor (pKi) 5HT1Dα” value (human 5HT1Dα receptor) was 5.30 and the “Receptor (pKi) 5HT1D2” value (5HT1D2) was 5.30.
`Cl.O=[N+]([O-])c1ccccc1S(=O)(=O)NC[C@H]1CC[C@H](CNCC2CCc3ccccc3C2)CC1` (some centres unmarked) [Compound 20] was tested, and the “Receptor (pKi) 5HT1E” value (human 5HT1E receptor) was 5.30 and the “Receptor (pKi) 5HT1F” value (human 5HT1F receptor) was 5.30.
With `Cl.c1ccc(Nc2nc(Nc3ccccc3)c3ccccc3n2)cc1` [Compound 1, 2,4-Diphenylamino-quinazoline Hydrochloride] the “Receptor (pKi) 5HT1E” value (human 5HT1E receptor) was 5.30, the Ki (5HT1a) was 30.9 µM and the Ki (human 5HT2 receptor) was 0.457 µM. For the same compound, the “Receptor (pKi) 5HT1F” value (human 5HT1F receptor) was 5.30, the “Receptor (pKi) 5HT1D2” value (5HT1D2) was 5.30 and the Ki [7] was 2.04 µM.
In the case of `COc1ccc(Nc2nc(Nc3ccccc3)c3cccc(OC)c3n2)cc1.Cl` [Compound 9, 8-Methoxy-2-(4-methoxy-phenylamino)-4-phenylamino-quinazoline Hydrochloride], the “Receptor (pKi) 5HT1E” value (human 5HT1E receptor) is reported as 5.30, the “Receptor (pKi) 5HT1F” value (human 5HT1F receptor) is reported as 5.30 and the Ki (human Y2 receptor [6]) is reported as greater than 100000 nM. The “Receptor (pKi) 5HT1Dα” value (human 5HT1Dα receptor) was 5.30 and the “Receptor (pKi) 5HT1D2” value (5HT1D2) was 5.30.
Work on `CC(=O)O[C@H]1CC[C@H](Nc2nc(Nc3ccccc3)c3ccccc3n2)CC1` [Compound 7, trans-2-(4-Acetoxy-cyclohexylamino)-4-phenylamino-quinazoline Hydrochloride] yielded a Ki [9] of 0.832 µM, a Ki [10] of 0.347 µM and a Ki [11] of 0.871 µM. For the same compound, the Ki (human 5HT1E receptor) was 5.01 µM, the Ki [12] was 0.813 µM and the Ki (human 5HT1F receptor) was 5.01 µM. For the same compound, the Ki (human 5-HT7 receptor) was 0.229 µM, the Ki (human Y1 receptor) was 2170 nM and the Ki (human Y2 receptor [6]) was 2870 nM. It also gave a Ki (human Y4 receptor [8]) of 7050 nM, a Ki (human 5HT1Dα receptor) of 1.41 µM and a Ki (5HT1D2) of 5.01 µM. For the same compound, the Ki [13] was 0.0692 µM and the Ki [5] was 0.141 µM.

Source: patent US6645774B1 (Synaptic Pharmaceutical Corporation, priority 1994, dated 2003)
